ChEMBL document CHEMBL3885861, “Open TG-GATES”

Organism: Rattus norvegicus
Assay: Open TG-GATES - Regimen: Single
Format: toxicity, organism-based, Sprague-Dawley
Design: regimen Single, gender Male, age 6 weeks
Details: in vivo, po, 150 mg/kg, route gavage, dose level High; for APTT / Bas / Eos / Fbg / Hb / Ht / Lym / MCH / MCHC / MCV / Mono / Neu / PT / Plat / RBC / Ret / WBC: tissue Blood; for KIDNEY_L / KIDNEY_R / KIDNEY_TOTAL: tissue Kidney; for LIVER: tissue Liver; for A/G / ALP / ALT / AST / BUN / CRE / Ca / Cl / DBIL / GLC / IP / K / LDH / Na / PL / RALB / TBIL / TC / TG / TP / gamma-GTP: tissue Plasma

`Nc1nc(N)c2nc(-c3ccccc3)c(N)nc2n1` gave a TERMINAL_BW (3 h) of 213.5 g, an APTT (3 h) of 17.4 s and a Bas (3 h) of 0.4%. For the same compound, the Eos (3 h) was 0.8%, the Fbg (3 h) was 303.6 mg/dL and the Hb (3 h) was 14.2 g/dL. For the same compound, the Ht (3 h) was 42.4%, the Lym (3 h) was 77.2% and the MCH (3 h) was 21.3 pg. It also gave an MCHC (3 h) of 33.4%, an MCV (3 h) of 63.7 fL and a Mono (3 h) of 3.2%. It also gave a Neu (3 h) of 17.6%, a PT (3 h) of 14 s and a Plat (3 h) of 128.5 x10_4/uL. The RBC (3 h) was 666 x10_4/ul, the Ret (3 h) was 7.5% and the WBC (3 h) was 118.9 x10_2/uL. The KIDNEY_L (3 h) was 1 g, the KIDNEY_R (3 h) was 1 g and the KIDNEY_TOTAL (3 h) was 2 g. It also gave an LIVER (3 h) of 9.5 g, an A/G (3 h) of 1 and an ALP (3 h) of 1286.4 IU/L. The ALT (3 h) was 36.6 IU/L, the AST (3 h) was 71 IU/L and the BUN (3 h) was 12.8 mg/dL. For the same compound, the CRE (3 h) was 0.2 mg/dL, the Ca (3 h) was 10.8 mg/dL and the Cl (3 h) was 105.8 meq/L. It also gave a DBIL (3 h) of 0.01 mg/dL, a GLC (3 h) of 166.4 mg/dL and an IP (3 h) of 8.6 mg/dL. The K (3 h) was 5.2 meq/L, the LDH (3 h) was 56.2 IU/L and the Na (3 h) was 141 meq/L. For the same compound, the PL (3 h) was 142.6 mg/dL, the RALB (3 h) was 2.7 g/dL and the TBIL (3 h) was 0.06 mg/dL. The TC (3 h) was 77.6 mg/dL, the TG (3 h) was 67.2 mg/dL and the TP (3 h) was 5.5 g/dL. The gamma-GTP (3 h) was 1 IU/L, the TERMINAL_BW (6 h) was 206.9 g and the APTT (6 h) was 17.1 s. It also gave a Bas (6 h) of 0%, an Eos (6 h) of 1% and a Fbg (6 h) of 349 mg/dL. For the same compound, the Hb (6 h) was 14.4 g/dL, the Ht (6 h) was 43.7% and the Lym (6 h) was 74.4%. For the same compound, the MCH (6 h) was 20.9 pg, the MCHC (6 h) was 33% and the MCV (6 h) was 63.3 fL. The Mono (6 h) was 2.8%, the Neu (6 h) was 20.8% and the PT (6 h) was 13.9 s. It also gave a Plat (6 h) of 123.5 x10_4/uL, an RBC (6 h) of 690.6 x10_4/ul and a Ret (6 h) of 7.5%. It also gave a WBC (6 h) of 94.4 x10_2/uL, a KIDNEY_L (6 h) of 1 g and a KIDNEY_R (6 h) of 1 g. For the same compound, the KIDNEY_TOTAL (6 h) was 1.9 g, the LIVER (6 h) was 9.1 g and the A/G (6 h) was 1. For the same compound, the ALP (6 h) was 1417.8 IU/L, the ALT (6 h) was 37.8 IU/L and the AST (6 h) was 76.6 IU/L. It also gave a BUN (6 h) of 11.8 mg/dL, a CRE (6 h) of 0.2 mg/dL and a Ca (6 h) of 10.9 mg/dL. It also gave a Cl (6 h) of 105.8 meq/L, a DBIL (6 h) of 0.01 mg/dL and a GLC (6 h) of 169.6 mg/dL. The IP (6 h) was 9.4 mg/dL, the K (6 h) was 5.3 meq/L and the LDH (6 h) was 65.2 IU/L. It also gave a Na (6 h) of 140 meq/L, a PL (6 h) of 150.6 mg/dL and an RALB (6 h) of 2.8 g/dL. The TBIL (6 h) was 0.058 mg/dL, the TC (6 h) was 80.8 mg/dL and the TG (6 h) was 55.6 mg/dL. It also gave a TP (6 h) of 5.8 g/dL, a gamma-GTP (6 h) of 1 IU/L and a TERMINAL_BW (9 h) of 205.8 g. The APTT (9 h) was 17.3 s, the Bas (9 h) was 0.2% and the Eos (9 h) was 1%. The Fbg (9 h) was 347 mg/dL, the Hb (9 h) was 14.4 g/dL and the Ht (9 h) was 43.5%. It also gave a Lym (9 h) of 71.4%, an MCH (9 h) of 20.9 pg and an MCHC (9 h) of 33.1%. The MCV (9 h) was 63.1 fL, the Mono (9 h) was 2.2% and the Neu (9 h) was 25%. For the same compound, the PT (9 h) was 13.9 s, the Plat (9 h) was 118.6 x10_4/uL and the RBC (9 h) was 689.4 x10_4/ul. It also gave a Ret (9 h) of 7.6%, a WBC (9 h) of 77.8 x10_2/uL and a KIDNEY_L (9 h) of 1 g. For the same compound, the KIDNEY_R (9 h) was 1 g, the KIDNEY_TOTAL (9 h) was 2 g and the LIVER (9 h) was 8.3 g. It also gave an A/G (9 h) of 1, an ALP (9 h) of 1443.6 IU/L and an ALT (9 h) of 35.2 IU/L. It also gave an AST (9 h) of 73.4 IU/L, a BUN (9 h) of 12.6 mg/dL and a CRE (9 h) of 0.2 mg/dL. For the same compound, the Ca (9 h) was 11.1 mg/dL, the Cl (9 h) was 105.4 meq/L and the DBIL (9 h) was 0.01 mg/dL. For the same compound, the GLC (9 h) was 165.2 mg/dL, the IP (9 h) was 10.6 mg/dL and the K (9 h) was 5 meq/L. For the same compound, the LDH (9 h) was 57.8 IU/L, the Na (9 h) was 141.4 meq/L and the PL (9 h) was 139 mg/dL. It also gave an RALB (9 h) of 2.9 g/dL, a TBIL (9 h) of 0.066 mg/dL and a TC (9 h) of 79.4 mg/dL. It also gave a TG (9 h) of 30.2 mg/dL, a TP (9 h) of 5.9 g/dL and a gamma-GTP (9 h) of 1.2 IU/L. It also gave a TERMINAL_BW (24 h) of 222.9 g, an APTT (24 h) of 17.6 s and a Bas (24 h) of 0.2%. The Eos (24 h) was 0.8%, the Fbg (24 h) was 366.6 mg/dL and the Hb (24 h) was 14.4 g/dL. For the same compound, the Ht (24 h) was 42.7%, the Lym (24 h) was 80.8% and the MCH (24 h) was 21.7 pg. It also gave an MCHC (24 h) of 33.7%, an MCV (24 h) of 64.4 fL and a Mono (24 h) of 2.4%. The Neu (24 h) was 15.4%, the PT (24 h) was 13.7 s and the Plat (24 h) was 121.5 x10_4/uL. It also gave an RBC (24 h) of 662.8 x10_4/ul, a Ret (24 h) of 6.2% and a WBC (24 h) of 84.4 x10_2/uL. The KIDNEY_L (24 h) was 1 g, the KIDNEY_R (24 h) was 1 g and the KIDNEY_TOTAL (24 h) was 2 g. For the same compound, the LIVER (24 h) was 10.2 g, the A/G (24 h) was 0.9 and the ALP (24 h) was 1697.4 IU/L. The ALT (24 h) was 43 IU/L, the AST (24 h) was 67.4 IU/L and the BUN (24 h) was 18 mg/dL. It also gave a CRE (24 h) of 0.2 mg/dL, a Ca (24 h) of 11.2 mg/dL and a Cl (24 h) of 106.2 meq/L. For the same compound, the DBIL (24 h) was 0.01 mg/dL, the GLC (24 h) was 175.4 mg/dL and the IP (24 h) was 8.4 mg/dL. The K (24 h) was 4.4 meq/L, the LDH (24 h) was 66.6 IU/L and the Na (24 h) was 143.8 meq/L. The PL (24 h) was 158 mg/dL, the RALB (24 h) was 2.7 g/dL and the TBIL (24 h) was 0.038 mg/dL. It also gave a TC (24 h) of 85.2 mg/dL, a TG (24 h) of 96.6 mg/dL and a TP (24 h) of 5.6 g/dL. The gamma-GTP (24 h) was 1 IU/L.
